Reference: patent publication US12440479B2, “Prevention or treatment of chronic organ injury” (GEORG-AUGUST-UNIVERSITAET GOETTINGEN, STIFTUNG …, priority 2018, dated 2025)

Key:
[1] = system: ARNT/HIF1β homodimer; assay: ARNT/HIF1β homodimer formation upon PP1/PP2A inhibition; details: for ARNT/HIF1β homodimer formation: Okadaic acid: PP1/PP2A inhibition, Tautomycin: PP1, LB-100: PP2A
Excerpt: Based on previous reports that combined inhibition of PP1/PP2A with Okadaic acid is capable to induce ARNT/HIF1β homodimer formation and transactivation activity by directly blocking ARNT dephosphorylation (163), the inventors first confirmed enhanced […] homodimer formation upon PP1/PP2A inhibition (FIG. 57A). […] See also FIG. 58.

[2] = system: parenchymal organs; details: LB-100 2 mg/kg in combination with FK506 0.2 mg/kg s.c. or GPI-1046 10 mg/kg s.c.
Description: Mice were injected intraperitoneally with 2 mg/kg body weight LB-100 (LDN, Sigma, St. Louis, USA) every alternate day starting at the day of surgery, control mice received equivalent volume of vehicle buffer.

[3] = system: FKBP12, YY1, ARNT; assay: In vivo-morpholino knockdown: intrarenal protein levels (immunostaining, immunoblotting); details: UUO mice, VMO 12.5 mg/kg intraperitoneally, vs control-VMO
Description: Mice were injected intraperitoneally with 12.5 mg/kg body weight in vivo-morpholinos (Gene Tools, Philomath, USA) in saline at a final volume of 100 μL every other day starting two days prior of surgery (114), sequence alignments were performed using NCBI Nucleotide Blast and are listed in Tables 3-5 (157). A control in vivo-morpholino that targets a human β-globin intron mutation was used as standard control (116).
(§1) For immunofluorescent staining, primary antibodies against ARNT (5537S, Cell Signaling, Danvers, USA), Hif1α (H6535, Sigma, St. Louis, USA), Hif2α (ab20654, Abcam Biochemicals, Cambridge, UK), phosphorylated Smad1/5/8 (pSmad1/5/8, sc-12353, Santa Cruz Biotechnology, Dallas, USA), CD45 (550539, BD Biosciences, Franklin Lakes, USA), Collagen-1 (ab34710, Abcam Biochemicals, Cambridge, UK), α-smooth muscle actin (aSMA, A5228, Sigma, St. Louis, USA), FKBP12 (ab2918, Abcam Biochemicals, Cambridge, UK) and YY1 (ab12132, Abcam Biochemicals, Cambridge, UK) were used, secondary antibodies were labeled with Alexa Fluor 488 or 568 (Life Technologies, Carlsbad, USA). Renal basement membranes were stained with antibodies against Collagen-4 (1340-30, SouthernBiotech, Birmingham, USA), cardiac cell membranes with antibodies against WGA (W11261, Life Technologies, Carlsbad, USA). Nuclear staining was performed using 4′,6-diamidino-2-phenylindole (DAPI, Vector Laboratories, Burlingame, USA). Relative areas positive for Collagen-1, aSMA, tubular nuclei positive for ARNT and pSmad1/5/8 were quantified in 10 high power fields per section at 400× magnification.
Tissue and cells were homogenized in NP40 lysis buffer (Life technologies, Carlsbad, USA) supplemented with protease inhibitor cocktail (Roche, Basel, Switzerland). […] Luminescence was detected by using chemiluminescent substrate (Cell Signaling, Danvers, USA) on a ChemiDoc XRS system (Bio-Rad, Hercules, USA). […]

[4] = system: intrarenal ARNT/ALK3 signaling; assay: UUO kidneys: ARNT/ALK3 expression and pSmad1/5/8 (qRT-PCR, immunoblotting, immunostaining); assay type: in vivo, mice; details: for intrarenal ARNT, ALK3 and nuclear pSmad1/5/8 immunostaining: UUO, VMO 12.5 mg/kg intraperitoneally or FK506 0.2 mg/kg orally per day
Description: Eight to twelve weeks-old C57/6, yGTcre−;Yy1fl/fl and yGTcre+;Yy1fl/fl mice were anesthetized with isoflurane inhalation (2-3%), analgesia was performed by subcutaneous injection of 0.1 mg/kg body weight per day Buprenorphine. The ureter was separated from the surrounding tissues and two ligatures were placed about 5 mm apart in upper two-thirds of the left ureter to obtain reliable obstruction. Mice were sacrificed 3, 7 or 10 days after ureteral obstruction for further analyses, as described before (53, 153-155).
Paraffin-embedded specimens were deparaffinized in xylene and rehydrated in ethanol containing distilled water. Tissue sections were stained using polyclonal antibodies against ALK3 (sc-20736, Santa Cruz Biotechnology, Dallas, USA) and ARNT (3718S, Cell Signaling, Danvers, USA), peroxidase labeling was performed using Vectastain Universal Elite ABC Kit (Vector Laboratories, Burlingame, USA) according to the manufacturer's protocol. AEC Substrate-Chromogen (Dako, Glostrup, Denmark) was applied for peroxidase visualization according to the manufacturer's protocol. Nuclear counterstain was performed by using Mayer's Hematoxylin Solution (Sigma, St. Louis, USA).
as §1
For SYBR-based real-time PCR, cDNA synthesis was performed by using DNase I digestion (Invitrogen, Carlsbad, USA) and SuperScript II Reverse Transcriptase (Invitrogen, Carlsbad, USA) according to the manufacturer's protocol. 1 μL of reverse-transcribed cDNA was added to the reaction mixture containing the primer pair (200 nmol/L each) and diluted 2× Fast SYBR Green Master Mix (Applied Biosystems, Carlsbad, USA) in a final volume of 20 μL for each PCR reaction. The real-time PCR reactions were performed in a 96-well reaction plate using the StepOne Plus Real-Time System (Applied Biosystems, Carlsbad, USA) and were done in triplicates. An initiation step at 95° C. for 20 seconds was followed by 40 cycles at 95° C. for 3 to seconds and 60° C. for 30 seconds, with one cycle of dissociation at 95° C. for 15 seconds, 60° C. for 60 seconds, and 95° C. for 15 seconds. The intercalation of SYBR Green dye and its fluorescent signal is directly proportional to the amount of amplified DNA and was transformed into the cycle threshold (Ct). For normalization, the Ct values of the housekeeping genes Gapdh and Actb were subtracted from the Ct values of the gene of interest to generate the dCt values. The relative expression levels were calculated using the equation 2^−ddCt.
Tissue and cells were homogenized in NP40 lysis buffer (Life technologies, Carlsbad, USA) supplemented with protease inhibitor cocktail (Roche, Basel, Switzerland).

[5] = system: UUO-challenged kidneys; assay: Unilateral ureteral obstruction (UUO): tubular injury and interstitial fibrosis (histology, immunostaining); assay type: in vivo, mice; details: UUO; for tubular injury and tubulointerstitial fibrosis: VMO 12.5 mg/kg intraperitoneally or FK506 0.2 mg/kg orally per day; for effect of FK506 on ALK3 expression or reno-protection: VMO added to FK506
[6] = FK506 0.02-5.0 mg/kg or CsA 10 mg/kg orally per day starting one day prior to UUO

For `CN1CCN(C(=O)C2C(C(=O)O)[C@H]3CC[C@@H]2O3)CC1` (stereo partly drawn) [LB-100], the ARNT/HIF1β homodimer formation [1] was “enhanced”, the “endogenous ARNT” value ([1]; by protection from degradation) was “effectively increases” and the “ARNT homodimer formation (mass spectrometry)” value ([1]; in the presence of LB-100) was “enhancement”. For the same compound, the “protection by FK506/GPI-1046” value [2] was “enhances protection”.
For `C=C1[C@@H](O)[C@@H]2O[C@]3(CC[C@H](/C=C/[C@@H](C)[C@@H]4CC(C)=C[C@@]5(O[C@H](C[C@@](C)(O)C(=O)O)CC[C@H]5O)O4)O3)CC[C@H]2O[C@@H]1[C@@H](O)C[C@H](C)[C@H]1O[C@@]2(CCCCO2)CC[C@H]1C` [Okadaic acid], the ARNT/HIF1β homodimer formation [1] was “enhanced”.
`CO[C@H]([C@H](O)CC(=O)[C@@H](C)[C@@H](O)CC[C@@H](C)[C@@H]1O[C@]2(CC[C@@H](C)[C@H](CC[C@H](C)C(C)=O)O2)CC[C@@H]1C)[C@H](OC(=O)C[C@@H](O)C1=C(C)C(=O)OC1=O)C(C)C` [Tautomycin] was tested, and the ARNT/HIF1β homodimer formation [1] was “did not affect”.
With “Arnt-VMO: in vivo-morpholinos targeting translational start site of Arnt (antisense AAGAGCCACTCCGCAGATTAGGCAC; all phosphorodiamidate morpholino (PMO); in vivo-morpholino, delivery moiety not given here, further chemistry not fully specified)” the “intrarenal protein levels of respective transcript” value (“intrarenal protein levels” for short) [3] was “effectively reduced”.
In the case of Cyclosporine A [CsA], the “expression of ALK3” value ([4]; UUO-challenged murine kidneys, treatment starting one day prior) is reported as “failed to induce”, the chronic tubular injury [5, 6] is reported as “failed to attenuate” and the interstitial fibrosis [5, 6] is reported as “failed to attenuate”.
“Fkbp12-VMO: in vivo-morpholinos targeting translational start site of Fkbp12 (SEQ ID NO: 9) (antisense AGATGGTCTCCACCTGCACTCCCAT; all phosphorodiamidate morpholino (PMO); in vivo-morpholino, delivery moiety not given here, further chemistry not fully specified)” was tested, and the “intrarenal ARNT, ALK3 and nuclear pSmad1/5/8 immunostaining” value [4] was “equally induced”, the “intrarenal protein levels” value [3] was “effectively reduced” and the “tubular injury and tubulointerstitial fibrosis” value [5] was “attenuated”. The “effect of FK506 on ALK3 expression or reno-protection” value [5] was “did not further enhance”.
“Yy1-VMO: in vivo-morpholinos targeting translational start site of Yy1 (SEQ ID NO: 10) (antisense TGTAGAGGGTGTCGCCCGAGGCCAT; all phosphorodiamidate morpholino (PMO); in vivo-morpholino, delivery moiety not given here, further chemistry not fully specified)” was tested, and the “intrarenal ARNT, ALK3 and nuclear pSmad1/5/8 immunostaining” value [4] was “equally induced”, the “intrarenal protein levels” value [3] was “effectively reduced” and the “tubular injury and tubulointerstitial fibrosis” value [5] was “attenuated”. For the same compound, the “effect of FK506 on ALK3 expression or reno-protection” value [5] was “did not further enhance”.
